One block for each molecule: values may come before it.
Assays:
SU-DHL-5 = test: Apoptosis of cell lines: SU-DHL-5; format: cell-based; conditions: SU-DHL-5, 21 hrs, 500 nM
Source text: (§1) The following cell lines representing various leukaemia's and lymphoma's, as classified by ATCC (www.atcc.org/), were used: Jurkat—acute T-cell leukaemia; CCRF-SB—B-cell acute lymphoblastic leukaemia; MC116—B-cell undifferentiated lymphoma; Raji, Ramos—Burkitt lymphoma (rare form of B-cell non-Hodgkin lymphoma); SU-DHL-4, SU-DHL-5, SU-DHL-8, NU-DUL-1, OCI-Ly3—Diffuse large B-cell lymphoma; THP-1—acute monocytic leukaemia; and Dakiki—B cell nasopharyngeal carcinoma.
(§2) Prior to an assay being performed, 1 vial of each of the above cell lines was thawed in a 37° C. water bath and then added to 20 ml complete media (RPMI 1640+2 mM GlutaMAX+1% Pen/Strep, all previous supplied by Invitrogen, +10% Fetal Bovine Serum (FBS), Sigma Aldrich). Cells were spun (500 g, 5 min, at RT) and re-suspended in 20 ml complete media to wash and spun again. Cells were resuspended in 10 ml complete media and then counted using a ChemoMetec NucleoCounter NC-3000. 6×10^6 cells of each cell line were spun (500 g, 5 min, at RT) and re-suspended in 4.8 ml complete media. 1×10^5 cells in 80 μl were then added to each well of a Corning Costar 96-well, cell culture treated, U-shaped-bottom microplate (cat no. 07-200-95). The plate was rested in a 37° C., 5% CO2 incubator for 2 hrs
(§3) Stocks of 4133-6294 BYbe and NegCtrl BYbe at 2500 nM in complete media were prepared. In a Greiner 96-well non-binding microplate, both reagents were serially diluted in complete media 1 in 5, seven times to produce to form an 8-point dose curve. […] (final well concentrations 500-0.0064 nM) was added to the cells. Each concentration was produced in triplicate. Camptothecin (cat no. C9911-100MG, Sigma Aldrich) and Staurosporine (cat no. 56942-200UL, Sigma Aldrich) were added as positive controls of apoptosis. Both were diluted in complete media and added to the well to produce a final concentration of 5 μM. Additional positive controls included anti-thymocyte globulin (ATG, indicated by FDA for use in conditioning regimens), Rituximab (anti-CD20, indicated by FDA for Non-Hodgkin Lymphoma and Chronic Lymphocytic Leukaemia) and Campath (anti-CD52, indicated by FDA for B-cell Chronic Lymphocytic Leukaemia). Anti-thymocyte globulin, Rituximab and Campath were added to the wells to produce final concentrations of 200 μg/ml, 500 nM and 200 μg/ml, respectively. […]
(§4) Following the incubation, the plates were spun at 500 g, 5 min, RT, the buffer was aspirated with a BioTek ELx405 microplate washer, and the cells were re-suspended in FACS buffer (PBS+1% bovine serum albumin (BSA)+0.1% NaN3+2 mM EDTA, Sigma Aldrich) to wash and then re-spun and buffer was aspirated to leave the cells in 20 μl residual media. […] Cells were analysed using the Bio-Rad ZE5 Cell Analyzer. […]

Jurkat = test: Apoptosis of cell lines: Jurkat; format: cell-based; conditions: 21 hrs, 500 nM
Source text: as §1, §2, §3, §4

NU-DUL-1 = test: Apoptosis of cell lines: NU-DUL-1; format: cell-based; conditions: NU-DUL-1, 21 hrs, 500 nM
Source text: as §1, §2, §3, §4

OCI-Ly3 = test: Apoptosis of cell lines: OCI-Ly3; format: cell-based; conditions: OCI-Ly3, 21 hrs, 500 nM
Source text: as §1, §2, §3, §4

Raji = test: Apoptosis of cell lines: Raji; format: cell-based; conditions: 21 hrs, 500 nM
Source text: as §1, §2, §3, §4

SU-DHL-8 = test: Apoptosis of cell lines: SU-DHL-8; format: cell-based; conditions: SU-DHL-8, 21 hrs, 500 nM
Source text: as §1, §2, §3, §4

Ramos = test: Apoptosis of cell lines: Ramos; format: cell-based; conditions: 21 hrs, 500 nM
Source text: as §1, §2, §3, §4

THP-1 = test: Apoptosis of cell lines: THP-1; format: cell-based; conditions: THP-1, 21 hrs, 500 nM
Source text: as §1, §2, §3, §4

MC116 = test: Apoptosis of cell lines: MC116; format: cell-based; conditions: MC116, 21 hrs, 500 nM
Source text: as §1, §2, §3, §4

Dakiki = test: Apoptosis of cell lines: Dakiki; format: cell-based; conditions: 21 hrs, 500 nM
Source text: as §1, §2, §3, §4

CCRF-SB = test: Apoptosis of cell lines: CCRF-SB; format: cell-based; conditions: 21 hrs, 500 nM
Source text: as §1, §2, §3, §4

SU-DHL-4 = test: Apoptosis of cell lines: SU-DHL-4; format: cell-based; conditions: SU-DHL-4, 21 hrs, 500 nM
Source text: as §1, §2, §3, §4

[1] = target: T1, human CD45 on cells (PBMC, whole blood cells, macrophages, leukaemia and lymphoma cell lines) (human, UniProt P08575 26-1306); test: cell-based or functional assay
T1 sequence: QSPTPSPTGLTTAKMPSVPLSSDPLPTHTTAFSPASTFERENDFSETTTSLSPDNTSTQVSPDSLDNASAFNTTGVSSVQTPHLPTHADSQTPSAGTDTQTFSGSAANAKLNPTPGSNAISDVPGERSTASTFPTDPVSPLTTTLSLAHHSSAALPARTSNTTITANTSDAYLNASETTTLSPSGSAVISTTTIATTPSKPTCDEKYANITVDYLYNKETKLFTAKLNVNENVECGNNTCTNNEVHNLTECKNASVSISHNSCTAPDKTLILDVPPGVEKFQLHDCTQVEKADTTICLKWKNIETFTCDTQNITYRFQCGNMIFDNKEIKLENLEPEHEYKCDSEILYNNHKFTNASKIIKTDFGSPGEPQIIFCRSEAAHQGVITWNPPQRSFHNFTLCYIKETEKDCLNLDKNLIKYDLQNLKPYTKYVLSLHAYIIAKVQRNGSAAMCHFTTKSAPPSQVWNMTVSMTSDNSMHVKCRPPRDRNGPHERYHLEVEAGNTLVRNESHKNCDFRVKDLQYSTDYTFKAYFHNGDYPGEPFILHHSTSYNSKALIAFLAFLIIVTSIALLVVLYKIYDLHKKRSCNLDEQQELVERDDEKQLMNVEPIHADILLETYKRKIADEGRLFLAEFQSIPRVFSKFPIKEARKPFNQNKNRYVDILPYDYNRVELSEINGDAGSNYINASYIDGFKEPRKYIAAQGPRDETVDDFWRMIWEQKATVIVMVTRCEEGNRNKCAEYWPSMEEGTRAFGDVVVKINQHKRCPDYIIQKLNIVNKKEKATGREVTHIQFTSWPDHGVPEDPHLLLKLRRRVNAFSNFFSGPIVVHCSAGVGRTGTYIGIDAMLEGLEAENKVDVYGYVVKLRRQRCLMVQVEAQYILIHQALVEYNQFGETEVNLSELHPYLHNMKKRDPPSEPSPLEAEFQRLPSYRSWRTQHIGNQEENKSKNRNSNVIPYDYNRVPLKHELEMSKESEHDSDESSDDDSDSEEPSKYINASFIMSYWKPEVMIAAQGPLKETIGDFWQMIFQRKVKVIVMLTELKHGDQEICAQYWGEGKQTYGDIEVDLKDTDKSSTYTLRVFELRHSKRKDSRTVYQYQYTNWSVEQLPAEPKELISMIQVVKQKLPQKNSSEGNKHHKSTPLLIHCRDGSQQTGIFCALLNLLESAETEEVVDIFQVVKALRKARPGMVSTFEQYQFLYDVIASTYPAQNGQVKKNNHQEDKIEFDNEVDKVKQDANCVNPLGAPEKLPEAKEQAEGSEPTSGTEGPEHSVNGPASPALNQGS

[2] = target: T2, CD45 domains 1-4 of the extracellular domain (UniProtKB P08575, residues 225-573) with C-terminal TEV cleavage site and 10-His tag (human); test: SPR, Biacore 3000, 25 C; Fab captured by anti-mouse F(ab)2, CD45 D1-D4 titrated 50 nM to 0.05 nM
[3] = target: T2, CD45 domains 1-4 of the extracellular domain; test: SPR, Biacore 3000, 25 C; Fab captured by anti-rabbit F(ab)2, CD45 D1-D4 titrated 50 nM to 0.05 nM

Molecule: Rituximab: anti-CD20, indicated by FDA for Non-Hodgkin Lymphoma and Chronic Lymphocytic Leukaemia; positive control [reference compound]
- Rituximab mean (%) cell reduction (SU-DHL-5): 61.26%
- Rituximab mean (%) cell reduction (Jurkat): 6.52%
- Rituximab mean (%) cell reduction (NU-DUL-1): 87.04%
- Rituximab mean (%) cell reduction (OCI-Ly3): 19.05%
- Rituximab mean (%) cell reduction (Raji): 87.89%
- Rituximab mean (%) cell reduction (SU-DHL-8): 15.25%
- Rituximab mean (%) cell reduction (Ramos): 91.05%
- Rituximab mean (%) cell reduction (THP-1): 23.12%
- Rituximab mean (%) cell reduction (MC116): 98.13%
- Rituximab mean (%) cell reduction (Dakiki): 58.55%
- Rituximab mean (%) cell reduction (CCRF-SB): 59.87%
- Rituximab mean (%) cell reduction (SU-DHL-4): 79.76%

B3: 4133 rabbit Fab (Fab, V domains shown)
VH: QEQLVESGGGLVQPEGSLTLTCTASGFSFSGNYYMCWVRQAPGKGLEWIGCLYTGSSGSTYYASWAKGRFTISKTSSTTVTLQMTSLTAADTATYFCARDLGYEIDGYGGLWGQGTLVTVSS
VL: AQVLTQTPSPVSAVVGGTVSISCQASQSVYNNNNLSWYQQKPGQPPKLLIYDASKLASGVPSRFKGSGSGTQFTLTISGVQCDDAATYYCLGGYYSSGWYFAFGGGTKVVVKR
- Kd [3]: 61 nM
- koff [3]: 0.035 s⁻¹
- kon [3]: 570000 M⁻¹ s⁻¹

More lines, now with the values ahead:

- EC50 of reduction of lymphocytes in PBMC, 24 h (UCB Cone-802) [1]: 0.09 nM
- EC50 of reduction of lymphocytes in PBMC, 24 h (UCB Cone-811) [1]: 0.17 nM
B1: 4133-6294 IgG4P FALA Knob-in-Hole (bispecific antibody)
heavy 1: QEQLVESGGGLVQPEGSLTLTCTASGFSFSGNYYMCWVRQAPGKGLEWIGCLYTGSSGSTYYASWAKGRFTISKTSSTTVTLQMTSLTAADTATYFCARDLGYEIDGYGGLWGQGTLVTVSSASTKGPSVFPLAPCSRSTSESTAALGCLVKDYFPEPVTVSWNSGALTSGVHTFPAVLQSSGLYSLSSVVTVPSSSLGTKTYTCNVDHKPSNTKVDKRVESKYGPPCPPCPSAPEAAGGPSVFLFPPKPKDTLMISRTPEVTCVVVDVSQEDPEVQFNWYVDGVEVHNAKTKPREEQFNSTYRVVSVLTVLHQDWLNGKEYKCKVSNKGLPSSIEKTISKAKTGQPREPQVYTLPPSQEEMTKNQVSLWCLVKGFYPSDIAVEWESNGQPENNYKTTPPVLDSDGSFFLYSRLTVDKSRWQEGNVFSCSVMHEALHNHYTQKSLSLSLGK
heavy 2: EVQLVESGAELARPGASVKMSCKASGYTFTSYTMHWVKQRPGQGLEWIGYINPSSGYTEYNQKFKDKTTLTADKSSSTAYLQLSSLTSEDSAVYYCARVGDGFYPSWLAYWGQGTLVTVSSASTKGPSVFPLAPCSRSTSESTAALGCLVKDYFPEPVTVSWNSGALTSGVHTFPAVLQSSGLYSLSSVVTVPSSSLGTKTYTCNVDHKPSNTKVDKRVESKYGPPCPPCPAPEAAGGPSVFLFPPKPKDTLMISRTPEVTCVVVDVSQEDPEVQFNWYVDGVEVHNAKTKPREEQFNSTYRVVSVLTVLHQDWLNGKEYKCKVSNKGLPSSIEKTISKAKGQPREPQVYTLPPSQEEMTKNQVSLSCAVKGFYPSDIAVEWESNGQPENNYKTTPPVLDSDGSFFLVSRLTVDKSRWQEGNVFSCSVMHEALHNHYTQKSLSLSLGK
light 1: AQVLTQTPSPVSAVVGGTVSISCQASQSVYNNNNLSWYQQKPGQPPKLLIYDASKLASGVPSRFKGSGSGTQFTLTISGVQCDDAATYYCLGGYYSSGWYFAFGGGTKVVVKRTVAAPSVFIFPPSDEQLKSGTASVVCLLNNFYPREAKVQWKVDNALQSGNSQESVTEQDSKDSTYSLSSTLTLSKADYEKHKVYACEVTHQGLSSPVTKSFNRGEC
light 2: DIQMTQSPKFLLVSAGDRVTITCKASQSVRNDVAWYQQKPGQSPKLLIFYASKRYTGVPDRFTGSGYGTDFTFTISTVQAEDLAVYFCQQDYSSPTTFGGGTKLEIKRTVAAPSVFIFPPSDEQLKSGTASVVCLLNNFYPREAKVQWKVDNALQSGNSQESVTEQDSKDSTYSLSSTLTLSKADYEKHKVYACEVTHQGLSSPVTKSFNRGEC

- Kd [2]: 0.085 nM
- koff [2]: 0.00022 s⁻¹
- kon [2]: 2.6e+06 M⁻¹ s⁻¹
B2: 6294 mouse Fab (Fab, V domains shown)
VH: EVQLVESGAELARPGASVKMSCKASGYTFTSYTMHWVKQRPGQGLEWIGYINPSSGYTEYNQKFKDKTTLTADKSSSTAYLQLSSLTSEDSAVYYCARVGDGFYPSWLAYWGQGTLVTVSS
VL: DIQMTQSPKFLLVSAGDRVTITCKASQSVRNDVAWYQQKPGQSPKLLIFYASKRYTGVPDRFTGSGYGTDFTFTISTVQAEDLAVYFCQQDYSSPTTFGGGTKLEIK

Source: patent publication US20230374148A1, “BINDING MOLECULES THAT MULTIMERISE CD45” (UCB BIOPHARMA SRL, priority 2020, published 2023)
